Test [1] has as its system Micrococcus luteus ATCC 9341. Nature of the test: Agar-plate disc-diffusion test. It counts as cell-based. As to conditions: 1 mg/ml, 7mm disc, 24-48 hours at 25-37° C.
Test [2] has as its system Staphylococcus aureus. Nature of the test: In vivo activity against experimental bacterial infection. As to conditions: mice, subcutaneous, two doses. On the procedure:
(§1) The representative A-21978C cyclic peptide of formula 1 has shown in vivo antimicrobial activity against experimental bacterial infections. When two doses of test compound were administered to mice in illustrative infections, the activity observed was measured as an ED50 value [effective dose in mg/kg to protect fifty percent of the test animals: See Warren Wick, et al., J. Bacteriol. 81, 233-235 (1961)].

The subject of test [3] is Streptococcus pyogenes. The description is as above. As to conditions: mice, two doses. On the procedure:
as §1

In test [4] the test system is Staphylococcus aureus ATCC 6738P. Nature of the test: Agar-plate disc-diffusion test. To be noted: compound suspended in water at 1 mg/ml, 7mm disc, 24-48 hours at 25-37° C. Format: cell-based.
The subject of test [5] is Bacillus subtilis ATCC 6633. Nature of the test: Agar-plate disc-diffusion test. To be noted: 1 mg/ml, 7mm disc.
Description: ^a Compounds were suspended in water at a concentration of 1 mg/ml; a
7mm disc was dipped into the suspension and then placed on the agar
surface; incubation 24-48 hours at 25-37° C.
The subject of test [6] is Staphylococcus aureus S13E. Nature of the test: Standard agar-dilution test (MIC). Format: cell-based. On the procedure:
(§2) The results of the antibacterial testing of a representative compound of formula 1, using the standard agar-dilution test, are summarized in Table II. In Table II activity is measured by the minimal inhibitory concentration (MIC), i.e. the lowest concentration of compound which inhibits the growth of the microorganism.

Test [7] concerns Staphylococcus aureus V41. Nature of the test: Standard agar-dilution test (MIC). Format: cell-based. As to conditions: Staphylococcus aureus V41, penicillin-resistant strain. On the procedure: as §2
In test [8] the test system is Staphylococcus aureus X400. Nature of the test: Standard agar-dilution test (MIC). Format: cell-based. To be noted: Staphylococcus aureus X400, methicillin-resistant strain. On the procedure: as §2
The test system of test [9] is Staphylococcus epidermidis EPI1. Nature of the test: Standard agar-dilution test (MIC). It counts as cell-based. On the procedure: as §2
The subject of test [10] is Staphylococcus aureus X1.1. Nature of the test: Standard agar-dilution test (MIC). It counts as cell-based. On the procedure: as §2
The test system of test [11] is Streptococcus Group 9960. Nature of the test: Standard agar-dilution test (MIC). It counts as cell-based. On the procedure: as §2
Test [12] deals with Streptococcus Group D X66. Nature of the test: Standard agar-dilution test (MIC). It counts as cell-based. On the procedure:
as §2

For test [13], the system named is Streptococcus pyogenes C203. Nature of the test: Standard agar-dilution test (MIC). Format: cell-based. On the procedure:
as §2

The subject of test [14] is Staphylococcus epidermidis EPI2. Nature of the test: Standard agar-dilution test (MIC). It counts as cell-based. On the procedure: as §2
The mark [15] stands for this setting: B. subtilis ATCC 6633 grown on minimal nutrient agar.
Setting [16] is: Bacillus subtilis ATCC 6633, 24-48 hours at 25-37° C.

The source of these data is patent USRE32310E, “Derivatives of A-21978C cyclic peptides” (Eli Lilly and Company, priority 1985, dated 1986).

Values after ≈ are worked out from the molar mass of the structure shown.

As for `CCCCCCCCCCCCOc1ccc(C(=O)N[C@@H](Cc2c[nH]c3ccccc23)C(=O)N[C@H](CC(N)=O)C(=O)N[C@@H](CC(=O)O)C(=O)N[C@@H]2C(=O)NCC(=O)N[C@@H](CCCN)C(=O)N[C@@H](CC(=O)O)C(=O)N[C@H](C)C(=O)N[C@@H](CC(=O)O)C(=O)NCC(=O)N[C@H](CO)C(=O)N[C@@H]([C@H](C)CC(=O)O)C(=O)N[C@@H](CC(=O)c3ccccc3N)C(=O)O[C@@H]2C)cc1` [NTrp --p-(n-Dodecyloxy)benzoyl-A-21978C, NTrp -p-(n-dodecyloxy)benzoyl-A-21978C Nucleus], the “Size of Zone of Inhibition” value in test [1] was 18 mm; in test [4] it was 20 mm; in test [5] (setting [15]), 20 mm; in test [5] (setting [16]), 13 mm. Besides, the figures for the “ED50 Values” in test [2], in test [3] (oral) and in [3] (subcutaneous) were 3.35 mg/kg × 2, greater than 200 mg/kg × 2 and 0.31 mg/kg × 2, respectively. Moreover, the “MIC Values” in test [6] stood at 1 µg/mL (≈ 0.57 µM); in [7], 1 µg/mL (≈ 0.57 µM); in test [8], 2 µg/mL (≈ 1.14 µM); in test [9] it was 4 µg/mL (≈ 2.28 µM); in test [10], 1 µg/mL (≈ 0.57 µM); in test [11], 1 µg/mL (≈ 0.57 µM). The figures for the “MIC Values” in [12], in [13] and in test [14] were 2 µg/mL (≈ 1.14 µM), 0.25 µg/mL (≈ 0.142 µM) and 2 µg/mL (≈ 1.14 µM), respectively.
In the case of “NTrp -p-(n-Dodecyloxy)benzoyl-NOrn -t-BOC-A-21978C Nucleus [p-(n-dodecyloxy)benzoyl t-BOC]”, the “Size of Zone of Inhibition” value in test [1] was found to be 15 mm; in test [4], 20 mm; in test [5] (setting [15]), 22 mm; in test [5] (setting [16]) it was 10 mm.
